From patent EP1841748B1, “ORGANOSELENIUM CONTAINING COMPOUNDS AND THEIR USE” (Seoul National University Industry Foundation, priority 2004, dated 2006)
pEC50: −log10 of the molar value.

How the values were obtained:
PPARα = biological target: T1, PPARα (Homo sapiens, UniProt Q07869); test: Transfection assay (luciferase reporter, full-length PPARs plasmid DNA) in CV-1 cells; format: cell-based; conditions: 24 hours treatment, luciferase calibrated with β-galactosidase
T1 construct: Full-length PPARs plasmid DNA, reporter DNA, which has luciferase activity; expressed in transfected cells; host or cells: CV-1 cells
T1 sequence (Q07869 1-468): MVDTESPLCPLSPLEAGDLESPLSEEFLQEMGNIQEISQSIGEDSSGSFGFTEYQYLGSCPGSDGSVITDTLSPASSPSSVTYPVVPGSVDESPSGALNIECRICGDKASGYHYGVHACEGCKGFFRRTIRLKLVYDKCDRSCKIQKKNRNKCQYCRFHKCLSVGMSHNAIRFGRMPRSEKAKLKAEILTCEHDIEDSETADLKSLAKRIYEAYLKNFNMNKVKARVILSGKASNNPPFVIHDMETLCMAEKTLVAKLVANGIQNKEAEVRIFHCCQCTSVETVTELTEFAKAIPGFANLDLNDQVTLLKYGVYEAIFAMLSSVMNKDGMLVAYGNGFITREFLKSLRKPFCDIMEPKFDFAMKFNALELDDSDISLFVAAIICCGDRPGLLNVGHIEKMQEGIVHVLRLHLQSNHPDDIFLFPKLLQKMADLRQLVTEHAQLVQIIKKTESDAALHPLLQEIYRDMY
Protocol: (§1) Transfection assay was performed using CV-1 cells. The cells were cultured with a DMEM medium containing 10 % FBS, DBS (delipidated) and 1 % penicillin/streptomycin in 37 °C of a transfection assay culture system containing 5 % of carbon dioxide on a 96-well plate. Test was performed in four stages - cell inoculation, transfection, treatment with the compound of the present invention and confirmation. The CV-1 cells were inoculated on the 96-well plate, 5,000 cells/well. Transfection was performed 24 hours later. Full-length PPARs plasmid DNA, reporter DNA, which has luciferase activity and thus enables confirmation of the activity for PPARs, and β-galactosidase DNA, which offers effective information on the transfection, were used. HK101225 prepared in Example 4 was dissolved in dimethylsulfoxide (DMSO) and treated to the cells at various concentrations. After 24 hours of culturing in an incubator, the cells were lysed with a lysis buffer and luciferase activity and β-galactosidase activity were measured using a luminometer and a microplate reader. The measured luciferase activity was calibrated with the β-galactosidase activity. The result was depicted on a graph and EC50 was determined.

PPARγ = biological target: T2, PPARγ (Homo sapiens, UniProt P37231); test: as above; format: cell-based; conditions: 24 hours treatment, luciferase calibrated with β-galactosidase
T2 construct: Full-length PPARs plasmid DNA, reporter DNA, which has luciferase activity; expressed in transfected cells; host or cells: CV-1 cells
T2 sequence (P37231 1-505): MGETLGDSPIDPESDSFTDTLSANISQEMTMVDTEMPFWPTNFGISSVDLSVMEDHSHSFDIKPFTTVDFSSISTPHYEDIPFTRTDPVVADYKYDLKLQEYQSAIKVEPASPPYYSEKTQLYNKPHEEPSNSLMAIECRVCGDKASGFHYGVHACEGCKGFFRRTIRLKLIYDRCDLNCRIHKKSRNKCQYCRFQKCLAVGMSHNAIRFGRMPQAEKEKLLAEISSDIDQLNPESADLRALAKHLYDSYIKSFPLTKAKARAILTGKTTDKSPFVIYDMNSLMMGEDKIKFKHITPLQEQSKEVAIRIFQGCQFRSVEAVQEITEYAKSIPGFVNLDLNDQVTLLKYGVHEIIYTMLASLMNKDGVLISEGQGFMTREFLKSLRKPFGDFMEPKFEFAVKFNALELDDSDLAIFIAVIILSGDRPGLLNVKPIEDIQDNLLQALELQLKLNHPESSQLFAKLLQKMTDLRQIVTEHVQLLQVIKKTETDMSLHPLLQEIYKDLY
Protocol: as §1

PPARδ = biological target: T3, PPARδ (Homo sapiens, UniProt Q03181); test: as above; format: cell-based; conditions: 24 hours treatment, luciferase calibrated with β-galactosidase
T3 construct: Full-length PPARs plasmid DNA, reporter DNA, which has luciferase activity; expressed in transfected cells; host or cells: CV-1 cells
T3 sequence (Q03181 1-441): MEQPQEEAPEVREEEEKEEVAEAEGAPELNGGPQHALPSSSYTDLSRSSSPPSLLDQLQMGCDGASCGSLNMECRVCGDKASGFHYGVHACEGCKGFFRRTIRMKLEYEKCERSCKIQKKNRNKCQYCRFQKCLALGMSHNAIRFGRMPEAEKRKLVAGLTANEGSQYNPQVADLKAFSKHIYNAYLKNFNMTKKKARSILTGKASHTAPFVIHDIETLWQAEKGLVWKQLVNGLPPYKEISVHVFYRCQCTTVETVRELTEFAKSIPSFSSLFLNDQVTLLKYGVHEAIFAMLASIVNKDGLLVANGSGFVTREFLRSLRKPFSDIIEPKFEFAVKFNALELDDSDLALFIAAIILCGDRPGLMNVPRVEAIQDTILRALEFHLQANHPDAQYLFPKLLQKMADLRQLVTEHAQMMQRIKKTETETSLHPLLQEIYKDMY
Protocol: as §1

CV-1 cells = test: MTT assay (cell toxicity); format: cell-based; conditions: 24 hours, at the concentration of 50,000 times of the EC50 (1.87 nM) value
Protocol: Toxicity was tested by MTT assay for HK101225 prepared in Example 4. MTT is a water-soluble, yellow substance. However, when introduced in a living cell, it is transformed into a water-insoluble, purple crystal by the mitochondrial dehydrogenase. Cell toxicity can be tested by dissolving this substance in dimethylsulfoxide and measuring light absorbance at 550 nm. The test was performed as follows.
CV-1 cells were inoculated on a 96-well plate, 5,000 cells/well. After culturing for 24 hours in a humidified culture system of 37 °C containing 5 % of carbon dioxide, the cells were treated with HK101225 at various concentrations. MTT reagent was added after 24 hours of culturing. After culturing for about 15 minutes, the purple crystal was dissolved in dimethylsulfoxide and absorbance was measured with a microplate reader to confirm cell toxicity.

[1] = Animal test: prevention of obesity under high-fat diet; format: in vivo, C57BL/6 mice; conditions: for increase in body weight: 10 mg/kg/day orally over a 78-day period of high-fat diet (feed with 35 % fat), vehicle group 102 %; for increase in body weight relative to the vehicle group: 10 mg/kg/day orally, 78-day high-fat diet, fraction of vehicle group's increase
Protocol: Animal test was performed with mice in order to confirm the in vivo effect of HK101225. 14-weeks old C57BL/6 mice (SLC Co.) were used and a feed containing 35 % of fat was given to induce obesity. A vehicle, GW501516 (10 mg/kg/day) and HK101225 (10 mg/kg/day) were orally administered over a 78-day period of high-fat diet. […] Thus, it was confirmed that HK101225 has a strong prevention effect against obesity.

[2] = GTT (glucose tolerance test): improvement of diabetes; format: in vivo, mice; conditions: after 78-day oral administration; for change of blood sugar level with time: followed to 120 minutes
Protocol: GTT (glucose tolerance test) was performed in order to confirm the diabetic improvement effect of the compound of the present invention. A vehicle, GW501516 and HK101225 were orally administered to mice over a 78-day period. Then, glucose (1.5 g/kg) was abdominally administered and change of blood sugar level with time was checked.

| SMILES | pEC50 (PPARα) | pEC50 (PPARγ) | pEC50 (PPARδ) | toxicity (CV-1 cells) | increase in body weight [1] [%] | increase in body weight relative to the vehicle group [1] | fasting blood sugar level ([2]; compared with vehicle and GW501516 groups) | time to complete glucose clearance ([2]; glucose 1.5 g/kg abdominally) [min] | change of blood sugar level with time ([2]; glucose 1.5 g/kg abdominally) |
| --- | --- | --- | --- | --- | --- | --- | --- | --- | --- |
| Cc1cc([Se]Cc2sc(-c3ccc(C(F)(F)F)cc3)nc2C)ccc1OCC(=O)O [HK101225, 2-[4-[[2-[4-(trifluoromethyl)phenyl]-4-methylthiazol-5-yl]methylselanyl]-2-methylphenoxy]acetic acid] | < 5.00 | < 5.00 | 8.73 | no toxicity | 21 | about 1/5 | lower fasting blood sugar level than the groups to which the vehicle and GW501516 were administered | 100 | rapid decrease of blood sugar level between 20 and 40 minutes |
| Cc1cc(SCc2sc(-c3ccc(C(F)(F)F)cc3)nc2C)ccc1OCC(=O)O [GW501516, [2-methyl-4-[[[4-methyl-2-[4-(trifluoromethyl)phenyl]-1,3-thiazol-5-yl]methyl]sulfanyl]phenoxy]acetic acid, reference compound] | – | – | – | – | 21 | about 1/5 | – | – | blood sugar level lower than that of the vehicle group, but did not restore to the normal level |
